The source made the active and inactive calls. The calls are words filed in the database; no cut-off is given here.
Key:
MDA-MB-231 = assay: Cytotoxicity against human MDA-MB-231 cells assessed as reduction in cell viability after 72 hrs by CyQuant dye-based assay; type: functional
U-251 [1] = assay: Cytotoxicity against human U251MG cells assessed as reduction in cell viability after 72 hrs by CyQuant dye-based assay; type: functional
NIH3T3 = assay: Cytotoxicity against mouse NIH/3T3 cells assessed as reduction in cell viability after 72 hrs by CyQuant dye-based assay
[2] = target: Signal transducer and activator of transcription 3 (Homo sapiens) (UniProt P40763); assay: Inhibition of STAT3 DNA binding activity in human U251MG nuclear extract at 5 uM preincubated for 30 mins followed by addition of [32P]hSIE measured up to 24 hrs by electrophoretic mobility shift assay
Signal transducer and activator of transcription 3 (Homo sapiens), sequence (P40763 whole entry): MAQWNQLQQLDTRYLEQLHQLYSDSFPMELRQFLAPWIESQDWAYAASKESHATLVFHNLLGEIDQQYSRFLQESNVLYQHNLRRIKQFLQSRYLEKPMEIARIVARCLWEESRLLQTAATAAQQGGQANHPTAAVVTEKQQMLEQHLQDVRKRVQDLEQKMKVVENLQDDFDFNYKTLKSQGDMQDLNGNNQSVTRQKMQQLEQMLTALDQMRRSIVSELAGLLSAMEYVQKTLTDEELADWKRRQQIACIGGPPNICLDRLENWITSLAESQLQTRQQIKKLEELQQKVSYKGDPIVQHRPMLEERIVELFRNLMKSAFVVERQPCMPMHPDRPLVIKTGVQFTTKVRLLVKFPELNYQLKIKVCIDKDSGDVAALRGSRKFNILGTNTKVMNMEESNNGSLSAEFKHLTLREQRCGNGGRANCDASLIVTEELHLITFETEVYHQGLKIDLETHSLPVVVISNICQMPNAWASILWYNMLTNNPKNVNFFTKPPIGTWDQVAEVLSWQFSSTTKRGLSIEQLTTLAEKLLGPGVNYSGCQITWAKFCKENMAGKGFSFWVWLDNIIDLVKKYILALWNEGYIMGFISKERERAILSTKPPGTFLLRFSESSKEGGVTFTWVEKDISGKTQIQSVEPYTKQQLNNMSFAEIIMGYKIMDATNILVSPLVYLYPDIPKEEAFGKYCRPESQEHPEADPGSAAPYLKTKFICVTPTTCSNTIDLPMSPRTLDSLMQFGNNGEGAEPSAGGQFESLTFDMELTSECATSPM

U-251 [3] = assay: Antimigratory activity in human U251MG cells at 2.5 to 5.0 uM after 18 hrs by inverted fluorescence microscopic method-based wound-healing assay; type: functional, cell-based
[4] = target: Signal transducer and activator of transcription 3 (Homo sapiens) (UniProt P40763); assay: Inhibition of STAT3 activity in human U251MG cells assessed as downregulation of STAT3 phosphorylation at Tyr705 residue at 5 uM up to 24 hrs by Western blot analysis; type: cell-based
[5] = Homo sapiens, U-251, 72 h, read-out: IC50

| inhibition [2] | inhibition [4] | SMILES | IC50 (MDA-MB-231) | IC50 (U-251 [1]; [5]) | IC50 (NIH3T3) | Activity (U-251 [3]) | IC50 (U-251 [1]; u-251) |
| --- | --- | --- | --- | --- | --- | --- | --- |
| – | – | CC(C)=CC[C@@H]1C[C@]23C[C@H](CC=C(C)C)C(C)(C)[C@](CC=C(C)C)(C(=O)C(C(=O)c4ccc(O)c(O)c4)=C2OC1(C)C)C3=O [ISOXANTHOCHYMOL] | Not Active | 6 µM | Non-Toxic | – | – |
| Active | – | C=C(C)[C@H]1C[C@@]23C[C@@H](CC=C(C)C)C(C)(C)[C@@](CC=C(C)C)(C(=O)C(C(=O)c4ccc(O)c(O)c4)=C2O[C@@H]1C=C(C)C)C3=O | Not Active | 3.7 µM | Non-Toxic | Active | – |
| – | – | C=C(C)CCC(CC12CC3C(C=C(C)C)C(C(=O)c4ccc(O)c(O)c4)(CC(CC=C(C)C)(C1=O)C3(C)C)C2=O)C(=C)C (centres undefined) | Not Active | – | Non-Toxic | – | Not Active |
| – | – | C=C(C)CC[C@H]1C[C@]23C[C@H](CC=C(C)C)C(C)(C)[C@](CC=C(C)C)(C2=O)c2oc4cc(O)c(O)cc4c(=O)c2[C@]3(O)CC1=C | Not Active | 3.5 µM | Non-Toxic | – | – |
| – | – | CC(C)=CC[C@H]1C[C@]23C[C@@H]4CC=C(C)C[C@]4(C)C[C@@]2(O)c2c(oc4cc(O)c(O)cc4c2=O)[C@@](CC=C(C)C)(C3=O)C1(C)C | Not Active | 1.8 µM | Non-Toxic | – | – |
| – | – | CC(C)=CC[C@H]1C[C@@]23C[C@@H](CC=C(C)C)C(C)(C)[C@@](CC=C(C)C)(C(=O)C(C(=O)c4ccc(O)c(O)c4)=C2OC1(C)C)C3=O [CAMBOGIN] | Not Active | 2.8 µM | Non-Toxic | – | – |
| – | – | C=C(C)C(CC=C(C)C)C[C@@]12C[C@@H](CC=C(C)C)C(C)(C)[C@@](CC=C(C)C)(C(=O)C(C(=O)c3cccc(O)c3)=C1O)C2=O (some centres undefined) | Not Active | 1.3 µM | Non-Toxic | – | – |
| – | Active | C=C(C)CC[C@H](C[C@]12C[C@H](CC=C(C)C)C(C)(C)[C@](CC=C(C)C)(C(=O)C(C(=O)c3ccc(O)c(O)c3)=C1O)C2=O)C(=C)C | – | – | – | – | – |

— ChEMBL document CHEMBL4052778, “Bioactive polyprenylated benzophenone derivatives from the fruits extracts of Garcinia xanthochymus” (Bioorg Med Chem Lett, 2017)
